Assay results: PMC10744336, “Functional Identification of Olfactory Receptors of Cnaphalocrocis medinalis (Lepidoptera: Crambidae) for Plant Odor” (Insects, 2023)

Tests used:
Test in all cases: two-electrode voltage clamp, Xenopus oocytes
Assay type in all cases: cell-based
CmedOR1/ORco [1] = biological target: T1, CmedOR1/ORco (Cnaphalocrocis medinalis, UniProt A0A0U3A934); conditions: agonist; with CmedORco; -80 mV; pH 7.5; 15 s stimulus; 10^-4 M (b31 also prints 0.1 μM)
T1 construct: gene or1; full ORF cloned in pT7Ts; cRNA co-injected with CmedORco in Xenopus oocytes; with Odorant receptor coreceptor
T1 sequence (A0A0U3A934 1-448): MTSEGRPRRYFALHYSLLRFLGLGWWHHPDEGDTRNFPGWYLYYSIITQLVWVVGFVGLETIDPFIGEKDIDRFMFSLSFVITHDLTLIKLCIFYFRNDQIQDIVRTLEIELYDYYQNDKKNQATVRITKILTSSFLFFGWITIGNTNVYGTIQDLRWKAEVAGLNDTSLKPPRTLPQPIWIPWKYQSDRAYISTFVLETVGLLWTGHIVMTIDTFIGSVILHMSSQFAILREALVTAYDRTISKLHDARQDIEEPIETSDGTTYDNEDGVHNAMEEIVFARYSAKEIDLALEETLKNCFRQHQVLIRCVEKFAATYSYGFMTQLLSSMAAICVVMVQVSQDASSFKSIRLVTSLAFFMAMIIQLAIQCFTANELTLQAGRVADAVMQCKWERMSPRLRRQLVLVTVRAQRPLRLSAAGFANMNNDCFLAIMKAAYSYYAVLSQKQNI
T1 sequence (H9XFD5 1-473 partner): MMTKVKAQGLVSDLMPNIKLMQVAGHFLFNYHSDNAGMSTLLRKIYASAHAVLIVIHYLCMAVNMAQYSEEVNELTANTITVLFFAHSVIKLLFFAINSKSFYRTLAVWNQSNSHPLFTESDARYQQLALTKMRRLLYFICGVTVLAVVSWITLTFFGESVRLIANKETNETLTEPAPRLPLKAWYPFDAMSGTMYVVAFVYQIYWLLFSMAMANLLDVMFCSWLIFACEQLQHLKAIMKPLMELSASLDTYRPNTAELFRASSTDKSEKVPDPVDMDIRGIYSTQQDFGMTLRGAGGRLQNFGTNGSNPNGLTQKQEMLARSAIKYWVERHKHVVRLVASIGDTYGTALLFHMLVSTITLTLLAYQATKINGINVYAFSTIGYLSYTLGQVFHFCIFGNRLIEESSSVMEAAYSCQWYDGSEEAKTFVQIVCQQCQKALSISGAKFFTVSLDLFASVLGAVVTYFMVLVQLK

CmedOR31/ORco = biological target: T2, CmedOR31/ORco (Cnaphalocrocis medinalis, UniProt A0A1B2G2M5); conditions: agonist; with CmedORco; -80 mV; pH 7.5; 15 s stimulus; concentration contradictory (text 0.1 μM, figure legend 10^-4 M)
T2 construct: full ORF cloned in pT7Ts; cRNA co-injected with CmedORco in Xenopus oocytes; with Odorant receptor coreceptor
T2 sequence (A0A1B2G2M5 1-408): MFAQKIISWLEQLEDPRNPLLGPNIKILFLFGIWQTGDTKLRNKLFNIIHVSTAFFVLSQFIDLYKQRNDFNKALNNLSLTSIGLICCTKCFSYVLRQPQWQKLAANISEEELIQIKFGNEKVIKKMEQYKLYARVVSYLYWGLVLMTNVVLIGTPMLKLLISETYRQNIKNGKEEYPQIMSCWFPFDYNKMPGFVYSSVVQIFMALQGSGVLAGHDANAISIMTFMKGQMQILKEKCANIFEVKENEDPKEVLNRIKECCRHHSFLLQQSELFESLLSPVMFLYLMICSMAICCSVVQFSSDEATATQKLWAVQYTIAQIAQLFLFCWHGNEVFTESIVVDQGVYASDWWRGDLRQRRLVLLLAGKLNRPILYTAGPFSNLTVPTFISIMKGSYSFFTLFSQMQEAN
T2 sequence (H9XFD5 1-473 partner): T1 sequence (H9XFD5 1-473 partner)

CmedOR32/ORco = biological target: T3, CmedOR32/ORco (Cnaphalocrocis medinalis, UniProt A0A1B2G2M9); conditions: agonist; with CmedORco; -80 mV; pH 7.5; 15 s stimulus; concentration contradictory (text 0.1 μM, figure legend 10^-4 M)
T3 construct: full ORF cloned in pT7Ts; cRNA co-injected with CmedORco in Xenopus oocytes; with Odorant receptor coreceptor
T3 sequence (A0A1B2G2M9 1-389): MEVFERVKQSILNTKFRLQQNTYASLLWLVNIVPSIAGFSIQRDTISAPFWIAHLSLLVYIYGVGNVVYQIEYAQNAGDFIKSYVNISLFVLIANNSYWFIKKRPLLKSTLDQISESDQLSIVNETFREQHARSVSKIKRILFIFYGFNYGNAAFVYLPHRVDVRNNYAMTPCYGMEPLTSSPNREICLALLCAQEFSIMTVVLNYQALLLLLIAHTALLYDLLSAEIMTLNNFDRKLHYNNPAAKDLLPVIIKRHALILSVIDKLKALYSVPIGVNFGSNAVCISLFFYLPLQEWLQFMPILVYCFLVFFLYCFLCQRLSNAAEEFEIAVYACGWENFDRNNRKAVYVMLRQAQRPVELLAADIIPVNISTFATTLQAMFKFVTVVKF
T3 sequence (H9XFD5 1-473 partner): T1 sequence (H9XFD5 1-473 partner)

CmedOR1/ORco [2] = biological target: T1, CmedOR1/ORco; conditions: agonist, with CmedORco, -80 mV, pH 7.5, 15 s stimulus, concentration contradictory (text 0.1 μM, figure legend 10^-4 M)

Structure (SMILES)	inward current (CmedOR32/ORco)	other results
O=CCc1ccccc1 [Phenylacetaldehyde]	–	inward current at 10^-4 M (CmedOR1/ORco [1]): 3200 ± 86 nA
CC(C)=CCC/C(C)=C/CO [Geraniol]	–	inward current (CmedOR31/ORco): 128 ± 16 nA
C=CC(=C)CCC=C(C)C [β-Myrcene]	floral volatile compounds methyl 2-methoxybenzoate, β-myrcene, and ethyl butyrate	–
CCC/C=C/C=O [E2-hexenal]	plant foliar odorants cis-3-hexenyl acetate, E2-hexenal, and β-caryophyllene	–
CCCC(=O)OCC [Ethyl butyrate]	floral volatile compounds methyl 2-methoxybenzoate, β-myrcene, and ethyl butyrate	–
COC(=O)c1ccccc1OC [Methyl 2-methoxybenzoate]	floral volatile compounds methyl 2-methoxybenzoate, β-myrcene, and ethyl butyrate	–
C=C1CC/C=C(\C)CC[C@@H]2[C@@H]1CC2(C)C [β-Caryophyllene]	plant foliar odorants cis-3-hexenyl acetate, E2-hexenal, and β-caryophyllene	–
OCCc1ccccc1 [Phenethyl alcohol]	–	inward current (CmedOR1/ORco [2]; printed as two isomers, phenethyl alcohol and 2-phenethyl alcohol): 130 ± 10 nA
CC/C=C\CCOC(C)=O [cis-3-Hexenyl acetate]	CmedOR32 showed nonspecific responses to plant foliar odorants cis-3-hexenyl acetate	–
C=CC(C)(O)CCC=C(C)C (stereo not shown) [Linalool]	–	inward current (CmedOR1/ORco [2]): 64 ± 5 nA
